In US20150105252A1, “SUBSTITUTED PYRAZOLES AS HERBICIDES” (E I DU PONT DE NEMOURS AND COMPANY, priority 2013, published 2015):

How the values were obtained:
corn = test: Test C postemergence; assay type: in vivo, Zea mays; details: for Plant response rating (scale of 0 to 100 where 0 is no effect and 100 is complete control), Corn: Postemergence, 31 g ai/ha, visually evaluated after 13 to 15 days; for Corn plant response rating / Plant response rating, Corn: postemergence; for Corn plant response rating: 62 g ai/ha, scale 0 to 100
How it was run: (§1)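 Seeds were sown in a loam soil–sand blend and sprayed preemergence with compounds formulated in a non-phytotoxic solvent mixture containing surfactant. Postemergence plants, grown in peat/vermiculite medium to 2–18 cm (1- to 4-leaf stage), received the same formulation. After 13 to 15 days in a greenhouse, injury was rated visually against controls (0 = no effect, 100 = complete control).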

chickweed = test: Test C postemergence; assay type: in vivo, Stellaria media; details: for Plant response rating (scale of 0 to 100 where 0 is no effect and 100 is complete control), Chickweed: Postemergence, 31 g ai/ha, visually evaluated after 13 to 15 days; for Chickweed plant response rating / Plant response rating, Chickweed: postemergence; for Chickweed plant response rating: 62 g ai/ha, scale 0 to 100
How it was run: as §1

wheat [1] = test: Test C preemergence; assay type: in vivo, Triticum aestivum; details: for Wheat plant response rating / Plant response rating, Wheat: preemergence; for Plant response rating, Wheat: 125 g ai/ha, scale 0 to 100, 0 = no effect, 100 = complete control
How it was run: as §1

barnyardgrass [2] = test: Test B flood; assay type: in vivo, Echinochloa crus-galli; details: 250 g ai/ha, visual rating on 0 to 100 scale (0 no effect, 100 complete control), 13 to 15 days
How it was run: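 Visual ratings on a 0–100 scale, where 0 means no effect and 100 means complete control, were assigned by comparison with controls 13 to 15 days after treatment. Compounds went into paddy water over 2-leaf plants flooded to 3 cm.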

morningglory = test: Test C postemergence; assay type: in vivo, Ipomoea coccinea; details: for Plant response rating (scale of 0 to 100 where 0 is no effect and 100 is complete control), Morningglory: Postemergence, 31 g ai/ha, visually evaluated after 13 to 15 days; for Morningglory plant response rating / Plant response rating, Morningglory: postemergence; for Morningglory plant response rating: 62 g ai/ha, scale 0 to 100
How it was run: as §1

barnyardgrass [3] = test: Test C postemergence; assay type: in vivo, Echinochloa crus-galli; details: for Plant response rating (scale of 0 to 100 where 0 is no effect and 100 is complete control), Barnyardgrass: Postemergence, 31 g ai/ha, visually evaluated after 13 to 15 days; for Barnyardgrass plant response rating / Plant response rating, Barnyardgrass: postemergence; for Barnyardgrass plant response rating: 62 g ai/ha, scale 0 to 100
How it was run: as §1

wheat [4] = test: Test C postemergence; assay type: in vivo, Triticum aestivum; details: for Plant response rating, Wheat / Wheat plant response rating: postemergence; for Wheat plant response rating: scale 0 to 100
How it was run: as §1

velvetleaf = test: Test C preemergence; assay type: in vivo, Abutilon theophrasti; details: for Velvetleaf plant response rating / Plant response rating, Velvetleaf: preemergence; for Plant response rating, Velvetleaf: 125 g ai/ha, scale 0 to 100, 0 = no effect, 100 = complete control
How it was run: as §1

lambsquarters [5] = test: Test C postemergence; assay type: in vivo, Chenopodium album; details: for Plant response rating (scale of 0 to 100 where 0 is no effect and 100 is complete control), Lambsquarters: Postemergence, 31 g ai/ha, visually evaluated after 13 to 15 days; for Lambsquarters plant response rating / Plant response rating, Lambsquarters: postemergence; for Lambsquarters plant response rating: 62 g ai/ha, scale 0 to 100
How it was run: as §1

kochia = test: Test C postemergence; assay type: in vivo, Kochia scoparia; details: for Plant response rating (scale of 0 to 100 where 0 is no effect and 100 is complete control), Kochia: Postemergence, 31 g ai/ha, visually evaluated after 13 to 15 days; for Kochia plant response rating / Plant response rating, Kochia: postemergence; for Kochia plant response rating: 62 g ai/ha, scale 0 to 100
How it was run: as §1

crabgrass, large = test: Test A postemergence; assay type: in vivo, Digitaria sanguinalis
How it was run: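 Seeds were sown in a loam soil–sand blend and given a directed soil spray preemergence; postemergence plants at 2–10 cm, one- to two-leaf stage, were sprayed with compound in non-phytotoxic solvent with surfactant. After about 10 days in a greenhouse, injury was visually rated against untreated controls (0 = no effect, 100 = complete control).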

foxtail, giant = test: Test C postemergence; assay type: in vivo, Setaria faberii; details: for Plant response rating (scale of 0 to 100 where 0 is no effect and 100 is complete control), Foxtail, Giant: Postemergence, 31 g ai/ha, visually evaluated after 13 to 15 days; for Foxtail, Giant plant response rating / Plant response rating, Foxtail, Giant: postemergence; for Foxtail, Giant plant response rating: 62 g ai/ha, scale 0 to 100
How it was run: as §1

lambsquarters [6] = test: Test C preemergence; assay type: in vivo, Chenopodium album; details: for Lambsquarters plant response rating / Plant response rating, Lambsquarters: preemergence; for Plant response rating, Lambsquarters: 125 g ai/ha, scale 0 to 100, 0 = no effect, 100 = complete control
How it was run: as §1

[7] = 250 g ai/ha, scale 0 to 100 (0 no effect, 100 complete control)
[8] = 125 g ai/ha, scale 0 to 100, 0 no effect, 100 complete control
[9] = 31 g ai/ha, visual rating, scale 0 to 100 (0 no effect, 100 complete control), 13 to 15 days
[10] = 62 g ai/ha, scale 0 to 100 (0 no effect, 100 complete control), 13 to 15 days
[11] = 250 g ai/ha, scale 0 to 100, 0 is no effect, 100 is complete control
[12] = Postemergence, 500 g ai/ha, 0 to 100 scale (0 no effect, 100 complete control)
[13] = postemergence, 125 g ai/ha, about 10 days, visual rating on 0 to 100 scale (0 no effect, 100 complete control)

## CCCNC(=O)c1cc(OCC)n(Cc2ccnc(C(F)(F)F)c2)n1 [Compound 187]
corn
  Plant response rating (scale of 0 to 100 where 0 is no effect and 100 is complete control), Corn: 5
  Corn plant response rating: 5
corn; [7]
  Plant response rating, Corn: 65
corn; [8]
  Plant response rating, Corn: 60
chickweed
  Plant response rating (scale of 0 to 100 where 0 is no effect and 100 is complete control), Chickweed: 98
  Chickweed plant response rating: 70
chickweed; [7]
  Plant response rating, Chickweed: 85
chickweed; [8]
  Plant response rating, Chickweed: 80
Wheat [1]; [9]
  Wheat plant response rating: 20
Wheat [1]; [10]
  Wheat plant response rating: 80
Wheat [1]; 13 to 15 days
  Plant response rating, Wheat: 90
Wheat [1]; [11]
  Wheat plant response rating: 90
Barnyardgrass [2]
  Plant response rating, Barnyardgrass: 55
morningglory
  Plant response rating (scale of 0 to 100 where 0 is no effect and 100 is complete control), Morningglory: 70
  Morningglory plant response rating: 85
morningglory; [7]
  Plant response rating, Morningglory: 98
morningglory; [8]
  Plant response rating, Morningglory: 80
Barnyardgrass [3]
  Plant response rating (scale of 0 to 100 where 0 is no effect and 100 is complete control), Barnyardgrass: 5
  Barnyardgrass plant response rating: 10
Barnyardgrass [3]; [7]
  Plant response rating, Barnyardgrass: 60
Barnyardgrass [3]; [8]
  Plant response rating, Barnyardgrass: 15
Wheat [4]; [7]
  Plant response rating, Wheat: 15
Wheat [4]
  Wheat plant response rating: 10
velvetleaf; [9]
  Velvetleaf plant response rating: 95
velvetleaf; [10]
  Velvetleaf plant response rating: 100
velvetleaf; 13 to 15 days
  Plant response rating, Velvetleaf: 100
velvetleaf; [11]
  Velvetleaf plant response rating: 100
Lambsquarters [5]
  Plant response rating (scale of 0 to 100 where 0 is no effect and 100 is complete control), Lambsquarters: 60
  Lambsquarters plant response rating: 75
Lambsquarters [5]; [7]
  Plant response rating, Lambsquarters: 90
Lambsquarters [5]; [8]
  Plant response rating, Lambsquarters: 75
kochia
  Plant response rating (scale of 0 to 100 where 0 is no effect and 100 is complete control), Kochia: 85
  Kochia plant response rating: 90
kochia; [7]
  Plant response rating, Kochia: 90
kochia; [8]
  Plant response rating, Kochia: 90
crabgrass, large; [12]
  Crabgrass, Large plant response rating: 90
crabgrass, large; [13]
  Crabgrass, Large plant response rating: 90
foxtail, giant
  Plant response rating (scale of 0 to 100 where 0 is no effect and 100 is complete control), Foxtail, Giant: 5
  Foxtail, Giant plant response rating: 10
foxtail, giant; [7]
  Plant response rating, Foxtail, Giant: 70
foxtail, giant; [8]
  Plant response rating, Foxtail, Giant: 45
Lambsquarters [6]; [9]
  Lambsquarters plant response rating: 100
Lambsquarters [6]; [10]
  Lambsquarters plant response rating: 100
Lambsquarters [6]; 13 to 15 days
  Plant response rating, Lambsquarters: 100
Lambsquarters [6]; [11]
  Lambsquarters plant response rating: 100

## CCONC(=O)c1cc(CC)n(Cc2ccnc(OC(F)F)c2)n1 [Compound 131]
corn
  Plant response rating (scale of 0 to 100 where 0 is no effect and 100 is complete control), Corn: 5
  Corn plant response rating: 5
corn; [7]
  Plant response rating, Corn: 50
corn; [8]
  Plant response rating, Corn: 5
chickweed
  Plant response rating (scale of 0 to 100 where 0 is no effect and 100 is complete control), Chickweed: 70
  Chickweed plant response rating: 70
chickweed; [7]
  Plant response rating, Chickweed: 80
chickweed; [8]
  Plant response rating, Chickweed: 70
Wheat [1]; Preemergence, 250 g ai/ha
  Plant response rating (scale of 0 to 100), Wheat: 95
Wheat [1]; [9]
  Wheat plant response rating: 45
Wheat [1]; [10]
  Wheat plant response rating: 85
Wheat [1]; 13 to 15 days
  Plant response rating, Wheat: 50
Barnyardgrass [2]
  Plant response rating, Barnyardgrass: 50
morningglory
  Plant response rating (scale of 0 to 100 where 0 is no effect and 100 is complete control), Morningglory: 35
  Morningglory plant response rating: 55
morningglory; [7]
  Plant response rating, Morningglory: 70
morningglory; [8]
  Plant response rating, Morningglory: 65
Barnyardgrass [3]
  Plant response rating (scale of 0 to 100 where 0 is no effect and 100 is complete control), Barnyardgrass: 5
  Barnyardgrass plant response rating: 5
Barnyardgrass [3]; [7]
  Plant response rating, Barnyardgrass: 45
Barnyardgrass [3]; [8]
  Plant response rating, Barnyardgrass: 10
Wheat [4]; Postemergence, 31 g ai/ha, visually evaluated after 13 to 15 days
  Plant response rating (scale of 0 to 100 where 0 is no effect and 100 is complete control), Wheat: 5
Wheat [4]; 62 g ai/ha
  Wheat plant response rating: 5
Wheat [4]; [7]
  Plant response rating, Wheat: 10
Wheat [4]; [8]
  Plant response rating, Wheat: 10
velvetleaf; Preemergence, 250 g ai/ha
  Plant response rating (scale of 0 to 100), Velvetleaf: 100
velvetleaf; [9]
  Velvetleaf plant response rating: 25
velvetleaf; [10]
  Velvetleaf plant response rating: 80
velvetleaf; 13 to 15 days
  Plant response rating, Velvetleaf: 100
Lambsquarters [5]
  Plant response rating (scale of 0 to 100 where 0 is no effect and 100 is complete control), Lambsquarters: 15
  Lambsquarters plant response rating: 40
Lambsquarters [5]; [7]
  Plant response rating, Lambsquarters: 85
Lambsquarters [5]; [8]
  Plant response rating, Lambsquarters: 65
kochia
  Plant response rating (scale of 0 to 100 where 0 is no effect and 100 is complete control), Kochia: 40
  Kochia plant response rating: 70
kochia; [7]
  Plant response rating, Kochia: 75
kochia; [8]
  Plant response rating, Kochia: 70
crabgrass, large; [12]
  Crabgrass, Large plant response rating: 90
crabgrass, large; [13]
  Crabgrass, Large plant response rating: 70
foxtail, giant
  Plant response rating (scale of 0 to 100 where 0 is no effect and 100 is complete control), Foxtail, Giant: 5
  Foxtail, Giant plant response rating: 10
foxtail, giant; [7]
  Plant response rating, Foxtail, Giant: 50
foxtail, giant; [8]
  Plant response rating, Foxtail, Giant: 40
Lambsquarters [6]; Preemergence, 250 g ai/ha
  Plant response rating (scale of 0 to 100), Lambsquarters: 100
Lambsquarters [6]; [9]
  Lambsquarters plant response rating: 98
Lambsquarters [6]; [10]
  Lambsquarters plant response rating: 100
Lambsquarters [6]; 13 to 15 days
  Plant response rating, Lambsquarters: 100
